We go through five compounds from ChEMBL document CHEMBL3227984, “5-Substituted uracil arabinonucleosides as potential antiviral agents” (J Med Chem, 1979).

Some results are limits rather than exact numbers.

This assay relates to Vaccinia virus. The assay can be described thus: Antiviral activity against Vaccinia virus infected in primary rabbit kidney cells assessed as inhibition of virus-induced cytopathogenicity. Type of assay: functional, Orthopoxvirus vaccinia. (In general: Damage to the host cells serves as the signal in cytopathic effect assays.)
`O=c1ccn([C@@H]2O[C@H](CO)[C@@H](O)[C@@H]2O)c(=O)[nH]1` [ARAURIDINE]: the ID50 is 8.2 ×10⁻⁴ M.

On to `N#Cc1cn([C@@H]2O[C@H](CO)[C@@H](O)[C@@H]2O)c(=O)[nH]c1=O`, for which the ID50 is recorded as >3.7 ×10⁻⁴ M.

For the compound `O=c1[nH]c(=O)n([C@@H]2O[C@H](CO)[C@@H](O)[C@@H]2O)cc1O`, the ID50 is given as >7.7 ×10⁻⁴ M.

Turning to `Cc1cn([C@@H]2O[C@H](CO)[C@@H](O)[C@@H]2O)c(=O)[nH]c1=O`, the ID50 turned out to be 3.9 ×10⁻⁶ M.

As to `O=c1[nH]c(=O)n([C@@H]2O[C@H](CO)[C@@H](O)[C@@H]2O)cc1[N+](=O)[O-]`, the ID50 was >6.9 ×10⁻⁴ M.
